Results as given in patent US20230372542A1, “COMPOSITION AND METHODS FOR MODULATING TCF4 GENE EXPESSION AND TREATING PITT HOPKINS SYNDROME” (The Regents of the University of California, priority 2020, published 2023).

How the values were obtained:
NPCs = test: NPC proliferation (live cell count, EdU) after Wnt signaling manipulation; format: cell-based, human
Protocol: Proliferation and apoptosis assays.
Wnt signaling manipulation. For manipulating the Wnt/β-catenin signaling pathway in NPCs, 200,000 cells were seeded on a 6-well plate, followed by treatment with specific agonist CHIR99021 (1 μM) for 4 days. Controls were treated with DMSO (CHIR diluent) at the same concentration and for the same duration. […] In all cases, treated cells were assayed to measure activity of the Wnt pathway via transfection with the TOP-Flash plasmids described herein.

[1] = tested on: Wnt/β-catenin signaling pathway; test: TOP-Flash luciferase reporter Wnt functional assay in NPCs; format: cell-based, human; conditions: PTHS NPCs; CHIR99021 (FIG. 16D)
Source text: TOP-Flash luciferase reporter Wnt functional assay. For assessing levels of Wnt signaling, 70% confluent cultures of NPCs in 24-well plates (with Neural Progenitor Medium from StemCell Technologies) were transfected with the M50 Super 8×TOPFlash plasmid (Addgene #12456; [http:/]/n2t.net/addgene:12456; RRID:Addgene_12456; referred to as TOP-Flash luciferase reporter plasmid), which is used to assess β-catenin-mediated transcriptional activation. This plasmid contains a minimal TA viral promoter driving the expression of a firefly luciferase gene preceded by seven binding sites ([…]; SEQ ID NO:1) for TCF/LEF (Veeman et al., 2003), not to be confused with TCF4. Control NPCs were transfected with M51 Super8×TOPflash plasmids, which have mutant TCF/LEF binding sites (Addgene plasmid #12457; [http:/]/n2t.net/addgene:12457; RRID:Addgene_12457).
Transfection was performed using the Amaxa Nucleofaction Mouse Neural Stem Cell Nucleofector kit for NPCs (Lonza), using the manufacturer's recommendations. After 24 h, medium was replenished and the luciferase assay was performed using the Pierce Firefly Luciferase Flash Assay Kit (Thermo Fisher Scientific) on a sample of 50,000 cells, using a Synergy microplate reader (BioTek Instruments). […] Activity levels were expressed as arbitrary units normalized against the mean activity in the respective controls. […]

Cc1c[nH]c(-c2cnc(NCCNc3ccc(C#N)cn3)nc2-c2ccc(Cl)cc2Cl)n1 [CHIR99021]
proliferation rates (NPCs; PTHS NPCs, CHIR99021 1 μM, 4 days (FIGS. 9G-H)): rescued the proliferation rates
proliferation (NPCs; parent NPCs in 2D culture, CHIR (FIGS. 9G-H)): does not lead to increased proliferation
Wnt signaling activity (TOP-Flash) [1]: increased
